US20160194358A1, “LINEAR PEPTIDE ANTIBIOTCS” (priority 2013, published 2016)
In brackets after ≈: the same amount, converted by molar mass. Like-named read-outs stand apart in the source and are kept apart here. *1 amine or outer side, *2 acyl side, *3 side chain or, on linkers, in order; H or OH if unused. Where a SMILES comes first, the peptide text is derived from it. [ ]: non-standard residue; d: D form. The star is where a group is joined. boroAla((+)-pinanediol) = C[C@H](N*)B1O[C@@H]2C[C@@H]3C[C@@H](C3(C)C)[C@]2(C)O1; Biphenylcarbonyl(4'-Bu) = CCCCc1ccc(-c2ccc(C(=O)*)cc2)cc1; X5 = C[C@H](N*)B1OC2C[C@@H]3C[C@@H](C3(C)C)[C@]2(C)O1; Benzoyl(4-(4-Cl-Ph)) = O=C(c1ccc(-c2ccc(Cl)cc2)cc1)*; X16 = O=S(=O)(c1ccc(-c2ccc(Cl)cc2)cc1)*; X11 = CCCCc1ccc(-c2nc(C(=O)*)cs2)cc1; X10 = O=C(c1ccc(-c2ccc(Cl)cc2)nc1)*; X14 = O=C(c1ccc(Oc2ccc(Cl)cc2)cc1)*; X1 = C[C@H](N[*:1])C(=O)C(=O)[*:2]; X15 = Cc1nnc(C(=O)[C@H](C)N*)o1; X3 = CCCCc1ccc(C2CCN(*)CC2)cc1; aThr = C[C@H](O)[C@H](N)C(=O)O; Decanoyl = CCCCCCCCCC(=O)*; X4 = c1ccc(C2CCN(*)CC2)cc1; boroAla = C[C@H](N*)B(O)O; X8 = NCCCCCCCCCCCCC(=O)*; Dab = NCC[C@H](N)C(=O)O; Dap = NC[C@H](N)C(=O)O; CO = O=C([*:1])[*:2]; NHcPr = C1CC1N*; CH2Cl = ClC*

Key:
[1] = tested on: Escherichia coli strain MC4100 IMP-4213, which harbors an LptD mutation; details: E. coli MC4100 IMP-4213, 35° C., 22 hours
Summary of the method: (§1)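 CLSI broth microdilution in cation-adjusted Mueller Hinton Broth with 0.002% Tween-80, two-fold dilutions starting at 64 μg/ml.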

[2] = tested on: methicillin resistant Staphylococcus aureus (MRSA) strain USA300 (NRS384); details: MRSA USA300 (NRS384), 35° C., 22 hours
Summary of the method: as §1

E. coli SPase = target: T1, E. coli SPase (Escherichia coli, UniProt P00803); assay: Biochemical SPase activity assay, fluorogenic peptide substrate, E. coli enzyme; details: 20 μM substrate, 10 minutes preincubation, read-out: IC 50 (nM) E. coli
T1 construct: Full length His-tagged E. coli SPase proteins; His; made in house; host or cells: E. coli BL21(DE3)
Procedure: Full length His-tagged E. coli SPase proteins were expressed in E. coli BL21(DE3) containing the plasmid pET23-lepB. Briefly, saturated overnight cultures grown in 20 ml of Luria-Bertani medium supplemented with ampicillin were subcultures into 1.5 L of Luria-Bertani, and shaken at 37° C. until an optical density at 600 nm of 0.4-0.5 was achieved.
(§2) Signal peptidase enzyme activity of the above proteins was measured using two fluorogenic peptide substrates (decanoyl-LSSPAYNO2A ? ADKabzPD and decanoyl-LTPTAYNO2A ? ASKKabzDD), where abz is the fluorescence donor 2-aminobenzamide, YNO2 is the fluorescence acceptor 3-nitrotyrosine, and the cleavage site is indicated with an arrow. Enzyme mix solution was prepared by diluting 2.5 nM of Escherichia coli or Staphylococcus aureus SPase protein into reaction buffers consisting of 20 mM PO4 pH 7.4, 100 mM NaCl, and 1% Elugent™ or octyl phenoxypolyethoxylethanol detergent at a concentration of 0.25% or 0.0625%. Reactions were initiated by the addition of substrate to a final concentration of 20 μM. Reaction progress was monitored by measuring the increase in fluorescence signal (excitation at 314 nm, emission at 416 nm) using a SpectraMax M2 fluorescence microplate reader. To determine IC50 values of test compounds, compound stock solutions were prepared in DMSO at a concentration of 1 mM. Three-folder serial dilutions of test compounds, starting at 10 μM, were prepared in enzyme mix solution and incubated at room temperature for 10 minutes. Following this incubation, fluorogenic substrate was added to a final concentration of 20 μM and the increase in fluorescence, corresponding to substrate cleavage, was monitored continuously at room temperature for 1 hour. Initial reaction rates were calculated based on the rate of increase in fluorescence during the reaction. Reaction rates were plotted as a function of compound concentration, and IC50 values are determined nonlinear regression analysis (SoftMaxPro 5.4, Molecular Devices™) of the sigmoidal dose-response curve.

S. aureus SPase = S. aureus SPase (Staphylococcus aureus, UniProt P0A070); assay: biochemical; details: IC 50 (nM) S. aureus, 20 μM substrate, 10 minutes preincubation
Procedure: Full length His-tagged S. aureus SPase protein was expressed similarly from E. coli BL21(DE3) containing the plasmid pCDF1-SaSpsB and purified similarly to the E. coli protein with the following exceptions. SPase protein was solubilized using 300 mM NaCl, 20 mM Tris pH 8.06, 5 mM Imidazole, 10% glycerol, 1% Triton X-100, prior to purification in Ni-NTA Superflow resin and resin bound protein was washed in a similar buffer containing 1% Elugent in place of Triton X-100 prior to protein eluted in wash buffer supplemented with 300 mM imidazole. […] All protein concentrations were determined by BCA assay.
as §2

T1 sequence (P00803 whole entry): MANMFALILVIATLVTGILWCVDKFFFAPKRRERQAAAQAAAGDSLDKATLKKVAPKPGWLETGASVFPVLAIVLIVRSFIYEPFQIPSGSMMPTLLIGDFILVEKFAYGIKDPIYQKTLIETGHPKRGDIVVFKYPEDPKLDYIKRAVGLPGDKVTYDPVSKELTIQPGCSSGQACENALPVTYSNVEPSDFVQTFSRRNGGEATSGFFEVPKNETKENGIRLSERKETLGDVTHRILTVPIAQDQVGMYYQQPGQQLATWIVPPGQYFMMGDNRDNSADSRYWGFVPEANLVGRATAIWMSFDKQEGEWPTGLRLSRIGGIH
S. aureus SPase, sequence (P0A070 whole entry): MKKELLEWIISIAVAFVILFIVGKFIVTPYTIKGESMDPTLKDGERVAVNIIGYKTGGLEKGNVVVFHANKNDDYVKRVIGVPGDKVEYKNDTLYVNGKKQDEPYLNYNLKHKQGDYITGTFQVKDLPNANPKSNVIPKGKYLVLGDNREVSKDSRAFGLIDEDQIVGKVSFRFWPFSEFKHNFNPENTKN

Structure (SMILES) | MIC (μg/mL) E. coli [1] [µg/mL] | MIC (μg/mL) S. aureus [2] [µg/mL] | IC50 (E. coli SPase) [nM] | IC50 (S. aureus SPase) [nM] | MIC (μg/mL) E. coli ([1]; listed as 207 P2) [µg/mL] | MIC (μg/mL) S. aureus ([2]; listed as 207 P2) [µg/mL] | MIC (μg/mL) E. coli ([1]; listed as 205 P1) [µg/mL] | MIC (μg/mL) S. aureus ([2]; listed as 205 P1) [µg/mL] | MIC (μg/mL) E. coli ([1]; listed as 203 P2) [µg/mL] | MIC (μg/mL) S. aureus ([2]; listed as 203 P2) [µg/mL]
CCCCc1ccc(-c2ccc(C(=O)N[C@@H](CCN)C(=O)N[C@@H](CCC(N)=O)C(=O)N[C@@H](C)C(=O)N[C@@H](CCCCN)C(=O)N[C@@H](C)B3OC4C[C@@H]5C[C@@H](C5(C)C)[C@]4(C)O3)cc2)cc1 (stereo partly drawn) [Compound 122] ({Biphenylcarbonyl(4'-Bu)}-[Dab]QAK-X5) | 0.2 (≈ 0.225 µM) | 0.4 (≈ 0.451 µM) | 20 | 240 | – | – | – | – | – | –
CCCCc1ccc(C2CCN(C(=O)N[C@@H](CCCCN)C(=O)N[C@H](C(=O)N[C@@H](C)C(=O)N[C@@H](CCCCN)C(=O)N[C@@H](C)B3O[C@@H]4C[C@@H]5C[C@@H](C5(C)C)[C@]4(C)O3)[C@@H](C)O)CC2)cc1 [Compound 127] ({X3-CO}-KTAK-{boroAla((+)-pinanediol)}) | 32 (≈ 35.8 µM) | 2 (≈ 2.23 µM) | 64 | 210 | – | – | – | – | – | –
C[C@H](NC(=O)[C@H](CCCCN)NC(=O)[C@H](C)NC(=O)[C@@H](NC(=O)[C@H](CCN)NC(=O)c1ccc(-c2ccc(Cl)cc2)nc1)[C@@H](C)O)B1O[C@@H]2C[C@@H]3C[C@@H](C3(C)C)[C@]2(C)O1 [Compound 118] (X10-[Dab]TAK-{boroAla((+)-pinanediol)}) | 8 (≈ 9.53 µM) | 2 (≈ 2.38 µM) | 15 | 70 | – | – | – | – | – | –
CCNC(=O)C(=O)[C@H](C)NC(=O)[C@H](CCCCN)NC(=O)[C@H](C)NC(=O)[C@@H](NC(=O)[C@H](CN)NC(=O)c1ccc(-c2ccc(Cl)cc2)cc1)[C@@H](C)O [Compound 102] ({Benzoyl(4-(4-Cl-Ph))}-[Dap]TAK[X1]-NHEt) | >64 | 32 (≈ 42.9 µM) | 440 | 580 | – | – | – | – | – | –
C[C@H](NC(=O)[C@H](CCCCN)NC(=O)[C@H](C)NC(=O)[C@@H](NC(=O)[C@H](CCCCN)NC(=O)N1CCC(c2ccccc2)CC1)[C@@H](C)O)B1O[C@@H]2C[C@@H]3C[C@@H](C3(C)C)[C@]2(C)O1 [Compound 126] ({X4-CO}-KTAK-{boroAla((+)-pinanediol)}) | >64 | 64 (≈ 76.3 µM) | 230 | 250 | – | – | – | – | – | –
CCCCc1ccc(-c2ccc(C(=O)N[C@@H](CCN)C(=O)N[C@H](C(=O)N[C@@H](C)C(=O)N[C@@H](CCCCN)C(=O)N[C@@H](C)B3O[C@@H]4C[C@@H]5C[C@@H](C5(C)C)[C@]4(C)O3)[C@H](C)O)cc2)cc1 [Compound 125] ({Biphenylcarbonyl(4'-Bu)}-[Dab][aThr]AK-{boroAla((+)-pinanediol)}) | 0.4 (≈ 0.465 µM) | 0.4 (≈ 0.465 µM) | 10 | 280 | – | – | – | – | – | –
CCCCc1ccc(-c2nc(C(=O)N[C@@H](CCN)C(=O)N[C@H](C(=O)N[C@@H](C)C(=O)N[C@@H](CCCCN)C(=O)N[C@@H](C)B3O[C@@H]4C[C@@H]5C[C@@H](C5(C)C)[C@]4(C)O3)[C@@H](C)O)cs2)cc1 [Compound 121] (X11-[Dab]TAK-{boroAla((+)-pinanediol)}) | 1.3 (≈ 1.5 µM) | 0.4 (≈ 0.461 µM) | 54 | 280 | – | – | – | – | – | –
CCCCc1ccc(-c2ccc(C(=O)N[C@@H](CCN)C(=O)N[C@H](C(=O)N[C@@H](C)C(=O)N[C@@H](CCCCN)C(=O)N[C@@H](C)C(=O)C3(C)CO3)[C@@H](C)O)cc2)cc1 (single isomer, unassigned) [Compound 207 P2] | – | – | 9900 | 1300 | 32 (≈ 41.8 µM) | 32 (≈ 41.8 µM) | – | – | – | –
CCCCCCCCCC(=O)N[C@@H](CCN)C(=O)N[C@H](C(=O)N[C@@H](C)C(=O)N[C@@H](CCCCN)C(=O)N[C@@H](C)B(O)O)[C@@H](C)O [Compound 120] (Decanoyl-[Dab]TAK-boroAla) | 11 (≈ 17.1 µM) | 2.8 (≈ 4.35 µM) | 21 | 120 | – | – | – | – | – | –
CCCCc1ccc(-c2ccc(C(=O)N[C@@H](CCN)C(=O)N[C@H](C(=O)N[C@@H](C)C(=O)N[C@@H](CCCCN)C(=O)N[C@@H](C)C(=O)CCl)[C@@H](C)O)cc2)cc1 [Compound 211] ({Biphenylcarbonyl(4'-Bu)}-[Dab]TAKA-CH2Cl) | 16 (≈ 21.1 µM) | 4 (≈ 5.27 µM) | 380 | 390 | – | – | – | – | – | –
COC(=O)CNC(=O)C(=O)[C@H](C)NC(=O)[C@H](CCCCN)NC(=O)[C@H](C)NC(=O)[C@@H](NC(=O)[C@H](CN)NC(=O)c1ccc(-c2ccc(Cl)cc2)cc1)[C@@H](C)O [Compound 111] ({Benzoyl(4-(4-Cl-Ph))}-[Dap]TAK[X1]G-OMe) | 16 (≈ 20.3 µM) | 16 (≈ 20.3 µM) | 360 | 690 | – | – | – | – | – | –
C[C@H](NC(=O)[C@@H](NC(=O)[C@H](CN)NC(=O)c1ccc(-c2ccc(Cl)cc2)cc1)[C@@H](C)O)C(=O)N[C@@H](CCCCN)C(=O)N[C@@H](C)C(=O)C(=O)NC1CC1 [Compound 109] ({Benzoyl(4-(4-Cl-Ph))}-[Dap]TAK[X1]-NHcPr) | 32 (≈ 42.3 µM) | 32 (≈ 42.3 µM) | 820 | 2000 | – | – | – | – | – | –
CCCCc1ccc(-c2ccc(C(=O)N[C@@H](CCN)C(=O)N[C@H](C(=O)N[C@@H](C)C(=O)N[C@@H](CCCCN)C(=O)N[C@@H](C)C(=O)C3OC3C)[C@@H](C)O)cc2)cc1 (single isomer, unassigned) [Compound 205 P1] | – | – | > 10000 | > 10000 | – | – | 32 (≈ 41.8 µM) | >64 | – | –
C[C@H](NC(=O)[C@H](CCCCN)NC(=O)[C@H](C)NC(=O)[C@@H](NC(=O)[C@H](CN)NC(=O)c1ccc(Oc2ccc(Cl)cc2)cc1)[C@@H](C)O)B1O[C@@H]2C[C@@H]3C[C@@H](C3(C)C)[C@]2(C)O1 [Compound 129] (X14-[Dap]TAK-{boroAla((+)-pinanediol)}) | 4 (≈ 4.76 µM) | 2.8 (≈ 3.33 µM) | 3.6 | 120 | – | – | – | – | – | –
C[C@H](NC(=O)[C@H](CCCCN)NC(=O)[C@H](C)NC(=O)[C@@H](NC(=O)[C@H](CCCCN)NS(=O)(=O)c1ccc(-c2ccc(Cl)cc2)cc1)[C@@H](C)O)B1O[C@@H]2C[C@@H]3C[C@@H](C3(C)C)[C@]2(C)O1 [Compound 128] (X16-KTAK-{boroAla((+)-pinanediol)}) | 64 (≈ 70.9 µM) | 2 (≈ 2.22 µM) | 1200 | 75 | – | – | – | – | – | –
Cc1nnc(C(=O)[C@H](C)NC(=O)[C@H](CCCCN)NC(=O)[C@H](C)NC(=O)[C@H](CCCCN)NC(=O)[C@H](CN)NC(=O)c2ccc(-c3ccc(Cl)cc3)cc2)o1 [Compound 213] ({Benzoyl(4-(4-Cl-Ph))}-[Dap]KAK-X15) | 64 (≈ 81.7 µM) | 32 (≈ 40.9 µM) | 49 | > 10000 | – | – | – | – | – | –
CCCCc1ccc(-c2ccc(C(=O)N[C@@H](CCN)C(=O)N[C@H](C(=O)N[C@@H](C)C(=O)N[C@@H](CCCCN)C(=O)N[C@@H](C)C(=O)C3OC3C)[C@@H](C)O)cc2)cc1 (single isomer, unassigned) [Compound 203 P2] | – | – | 1500 | 1000 | – | – | – | – | 23 (≈ 30 µM) | 8 (≈ 10.4 µM)
C[C@H](NC(=O)[C@H](CCCCN)NC(=O)[C@H](C)NC(=O)[C@@H](NC(=O)[C@H](CCN)NC(=O)CCCCCCCCCCCCN)[C@@H](C)O)B1O[C@@H]2C[C@@H]3C[C@@H](C3(C)C)[C@]2(C)O1 [Compound 115] (X8-[Dab]TAK-{boroAla((+)-pinanediol)}) | >64 | 11 (≈ 13.2 µM) | 330 | 590 | – | – | – | – | – | –
